Calls of active or inactive are those of the source. No rule for the calls is given here.

This data set concerns rodent carcinogenicity bioassays, tumor incidence. Briefly: CCRIS carcinogenicity studies. The essentials:
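NCI-built, expert-reviewed records of carcinogenicity and related test outcomes (mutagenicity, tumor promotion/inhibition) compiled from published and report sources, historical span 1985-2011, not updated.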

As to `Clc1ccc(-c2cc(Cl)c(Cl)cc2Cl)cc1Cl`, the carcinogen call (Species: Rat, Strain/Sex: Harlan Sprague-Dawley/Female (80/Group), Route: Oral, Dose: 0, 100, 220, 460, 1000, 4600 ug/kg in corn oil, by gavage, 5 d/wk for 2 yr, Dose: 0, 100, 220, 460, 1000, 4600 ug/kg in corn oil, by gavage, 5 d/wk for 2 yr, Tumor Site: Type of Lesion: Liver: cholangiocarcinoma (0/52, 0/51, 0/52, 0/52, 3/52, 36/49, 29/49), hepatocellular adenoma (0/52, 1/51, 1/52, 4/52) was “active; positive”.
For the molecule `[K+]`, the carcinogen call is, setting by setting: (Species: RAT, Strain/Sex: F344/FEMALE, Route: ORAL, Dose: 0, 10, 100, 1000 PPM IN DRINKING WATER FOR 2 YR (STUDY DURATION: 2 YR), Dose: 0, 10, 100, 1000 PPM IN DRINKING WATER FOR 2 YR (STUDY DURATION: 2 YR), Tumor Site: Type of Lesion: SALIVARY GLAND: SQUAMOUS CELL CARCINOMA) “active; positive”; (Species: RAT, Strain/Sex: F344/MALE, Route: ORAL, Dose: 0, 10, 100, 1000 PPM IN DRINKING WATER FOR 2 YR (STUDY DURATION: 2 YR), Dose: 0, 10, 100, 1000 PPM IN DRINKING WATER FOR 2 YR (STUDY DURATION: 2 YR), Tumor Site: Type of Lesion: SALIVARY GLAND: SQUAMOUS CELL CARCINOMA) “active; positive”.
On to `O=C([O-])CN(CC(=O)[O-])CC(=O)[O-].[Cu+2]`, for which the carcinogen call (Species: RAT, Strain/Sex: WISTAR/MALE, Route: INTRAPERITONEAL, Tumor Site: Type of Lesion: KIDNEY: RENAL CELL CARCINOMA) is “active; positive”.
Regarding `Cc1c2c(c(C)c3c1ccc1ccccc13)CCCC2`, the carcinogen call (Species: MOUSE, Strain/Sex: SWISS/FEMALE, Route: DERMAL, Dose: 0, 41 UG IN ACETONE (0.2%) 2/WK FOR 65 WK FOR A TOTAL DOSE OF 0, 5.3 MG (STUDY DURATION: 80 WK), Dose: 0, 41 UG IN ACETONE (0.2%) 2/WK FOR 65 WK FOR A TOTAL DOSE OF 0, 5.3 MG (STUDY DURATION: 80 WK), Tumor Site: Type of Lesion: SKIN: CARCINOMA, SKIN: PAPILLOMA) was “active; positive”.
For the molecule `ClCc1cccnc1`, the carcinogen call is, setting by setting: (Species: MOUSE, Strain/Sex: B6C3F1/FEMALE, Route: GAVAGE, Dose: 0, 100, 200 MG/KG, Dose: 0, 100, 200 MG/KG, Tumor Site: Type of Lesion: STOMACH: SQUAMOUS CELL PAPILLOMA, CARCINOMA) “active; positive”; (Species: MOUSE, Strain/Sex: B6C3F1/MALE, Route: GAVAGE, Dose: 0, 100, 200 MG/KG, Dose: 0, 100, 200 MG/KG, Tumor Site: Type of Lesion: STOMACH: SQUAMOUS CELL PAPILLOMA, CARCINOMA) “active; positive”; (Species: RAT, Strain/Sex: F344/FEMALE, Route: GAVAGE, Dose: 0, 75, 150 MG/KG FOR 83 WK (STUDY DURATION: 104 WK), Dose: 0, 75, 150 MG/KG FOR 83 WK (STUDY DURATION: 104 WK), Tumor Site: Type of Lesion: FORESTOMACH: SQUAMOUS CELL PAPILLOMA) “equivocal”; (Species: RAT, Strain/Sex: F344/MALE, Route: GAVAGE, Dose: 0, 75, 150 MG/KG, Dose: 0, 75, 150 MG/KG, Tumor Site: Type of Lesion: STOMACH: SQUAMOUS CELL PAPILLOMA OR CARCINOMA) “active; positive”.
For `C=C(C)[C@H]1Cc2c(ccc3c2O[C@@H]2COc4cc(OC)c(OC)cc4[C@@H]2C3=O)O1`, the carcinogen call is, setting by setting: (Species: MOUSE, Strain/Sex: B6C3F1/FEMALE, Route: ORAL, Dose: 0, 600, 1200 PPM IN DIET FOR 103 WK (STUDY DURATION: 105 WK), Dose: 0, 600, 1200 PPM IN DIET FOR 103 WK (STUDY DURATION: 105 WK)) “inactive; negative”; (Species: MOUSE, Strain/Sex: B6C3F1/MALE, Route: ORAL, Dose: 0, 600, 1200 PPM IN DIET FOR 103 WK (STUDY DURATION: 105 WK), Dose: 0, 600, 1200 PPM IN DIET FOR 103 WK (STUDY DURATION: 105 WK)) “inactive; negative”; (Species: RAT, Strain/Sex: F344/FEMALE, Route: ORAL, Dose: 0, 38, 75 PPM IN DIET FOR 103 WK (STUDY DURATION: 105 WK), Dose: 0, 38, 75 PPM IN DIET FOR 103 WK (STUDY DURATION: 105 WK)) “inactive; negative”; (Species: RAT, Strain/Sex: F344/MALE, Route: ORAL, Dose: 0, 38, 75 PPM IN DIET FOR 103 WK (STUDY DURATION: 105 WK), Dose: 0, 38, 75 PPM IN DIET FOR 103 WK (STUDY DURATION: 105 WK), Tumor Site: Type of Lesion: PARATHYROID GLAND: ADENOMA) “equivocal”; (Species: RAT, Strain/Sex: WISTAR/FEMALE, Route: INTRAPERITONEAL, Dose: 0, 1, 2 MG/KG IN SUNFLOWER OIL 5 D/WK FOR 8 WK (STUDY DURATION: 18 MO), Dose: 0, 1, 2 MG/KG IN SUNFLOWER OIL 5 D/WK FOR 8 WK (STUDY DURATION: 18 MO)) “inactive; negative”; (Species: RAT, Strain/Sex: WISTAR/FEMALE, Route: INTRAPERITONEAL, Dose: 0, 1, 2 MG/KG IN SUNFLOWER OIL/CHLOROFORM (9:1) 5 D/WK FOR 8 WK (STUDY DURATION: 18 MO), Dose: 0, 1, 2 MG/KG IN SUNFLOWER OIL/CHLOROFORM (9:1) 5 D/WK FOR 8 WK (STUDY DURATION: 18 MO)) “inactive; negative”.
For `CN(N)C=O`, the carcinogen call runs as follows: (Species: MOUSE, Strain/Sex: SWISS/FEMALE, Route: ORAL, Dose: 0, 0.0078% SOLUTION IN DRINKING WATER STARTING AT 6 WK OF AGE FOR LIFE FOR AVERAGE DAILY INTAKE OF 0 OR 0.80 MG (STUDY D, Tumor Site: Type of Lesion: LIVER: HEPATOMA OR CARCINOMA, LUNG: ADENOMA OR ADENOCARCINOMA) “active; positive”; (Species: MOUSE, Strain/Sex: SWISS/MALE, Route: ORAL, Dose: 0, 0.0078% SOLUTION IN DRINKING WATER STARTING AT 6 WK OF AGE FOR LIFE FOR AVERAGE DAILY INTAKE OF 0 OR 0.99 MG (STUDY D, Tumor Site: Type of Lesion: LIVER: HEPATOMA OR CARCINOMA, LUNG: ADENOMA OR ADENOCARCINOMA, GALLBLADDER: ADENOMA, BILE DUCT: CHOLANGIOMA OR CHOLANGIO, Tumor Site: Type of Lesion: LIVER: HEPATOMA OR CARCINOMA, LUNG: ADENOMA OR ADENOCARCINOMA, GALLBLADDER: ADENOMA, BILE DUCT: CHOLANGIOMA OR CHOLANGIO) “active; positive”.

The record behind these values is PubChem BioAssay AID1259411 (Chemical Carcinogenesis Research Information System (CCRIS), 2018).
